Results reported in article PMC4642847, “The PDB database is a rich source of alpha-helical anti-microbial peptides to combat disease causing pathogens” (F1000Research, 2015).
Where no end group is shown, it is not given here.

Key:
[1] = test system: Liberibacter crescens BT-1 (Lc)
[2] = test system: Xylella fastidiosa 3A2 (Xf)
[3] = test system: Xanthomonas arboricola 417 (Xa)

Sequence | Minimum Inhibitory Concentration [1] [µM] | Minimum Inhibitory Concentration [2] | Minimum Inhibitory Concentration [3]
TIWKGVPKFLRRVDTALKNI [PPC20] | 200 | 150 50 µM | –
TLDELELFTDAVERW [ISS15] | >300 | >300 >300 µM | >300 >300 µM
KWKVFKKIEKMGRNIRNGIVKAGPAIAVLGEAKAL [CECB, Cecropin B, reference compound] | 100 | 100 25 µM | –
WKVFKKIEKMGRNIRNGIVKA [CBNT21, reference compound] | 200 | 200 25 µM | –
TAYGIMARQPNSRKSFIDSSIRLAR [CHITI25] | >300 | 100 150 µM | 100 150 µM
